Laboratory results taken from article PMC10631289 (Bioorganic & medicinal chemistry letters, 2023).

Experiments:
HEK parental cell line = assay: cAMP accumulation in HEK parental cell line; conditions: up to 10 μM
GPR3 [1] = conditions: cited from earlier work
hGPR3 = hGPR3 (Homo sapiens, UniProt P46089); assay: cAMP accumulation through hGPR3 stably expressed in HEK293 cells; assay type: cell-based; conditions: tested up to 100 μM
GPR3 [2] = conditions: β-arrestin PathHunter assay; cited from earlier work

hGPR3, sequence (P46089 whole entry): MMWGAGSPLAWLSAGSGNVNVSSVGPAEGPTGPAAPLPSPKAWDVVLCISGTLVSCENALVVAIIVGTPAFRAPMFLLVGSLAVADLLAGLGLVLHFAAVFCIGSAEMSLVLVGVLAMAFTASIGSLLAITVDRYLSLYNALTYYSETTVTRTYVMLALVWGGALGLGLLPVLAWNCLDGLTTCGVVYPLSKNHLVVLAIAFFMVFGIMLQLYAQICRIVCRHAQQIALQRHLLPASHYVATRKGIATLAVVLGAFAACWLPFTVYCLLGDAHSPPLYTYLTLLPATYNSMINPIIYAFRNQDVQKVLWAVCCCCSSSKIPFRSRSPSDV

In the case of [Cl-].c1ccc2c(c1)[I+]c1ccccc1-2 [Compound 1, diphenyleneiodonium (DPI) chloride], the “increase of cAMP” value (HEK parental cell line) is listed as “Neither compound increased cAMP”, the “increase of cAMP” value (HEK parental cell line; listed as DPI) is listed as “but not GPR6, GPR12, or in HEK293 cells alone” and the “reported EC50 for cAMP accumulation” value (GPR3 [1]; GPR3 activation) is listed as “low micromolar range”.

In the case of FC1(F)Oc2cc3c(cc2O1)-c1ccccc1[I+]3 [Compound 38], the “GPR3 agonist activity in words” value (hGPR3) was “inactive”.

In the case of Fc1cccc2c1-c1ccccc1[I+]2 [Compound 34], the “GPR3 agonist activity in words” value (hGPR3) was “inactive”.

For CCCCCCCCCCCCC/C=C/[C@@H](O)[C@@H](N)COP(=O)(O)O [Compound S1P, sphingosine 1-phosphate], the “activation of GPR3 mediated internalization” value (GPR3 [2]) is listed as “does not activate” and the “activation of cAMP accumulation” value (GPR3 [1]; CHO or HEK cells, ref 4a, 19) is listed as “does not activate”.

With c1ccc2c(c1)Cc1ccccc1[I+]2 [Compound 23, 10H-Dibenz[b,e]iodinium] the “GPR3 agonist activity in words” value (hGPR3) was “inactive”.
